Assay results taken from patent publication US8623832B2, “Peptide compositions that bind TLR-4” (The Board of Regents of the University of Oklahoma, priority 2011, dated 2014).

Tests used:
[1] = test system: primary adult baboon lung DCs and fetal baboon lung DC-precursor cells; experiment: TNF-α secretion against E. coli by baboon lung DCs (ELISA); assay type: cell-based; settings: 3 hours phagocytosis reaction; protein added alone
Procedure: After confirming that the fluorescence is of phagocytosed bioparticles, comprehensive experiments were performed in presence and absence of effector molecules (SP-A and TLR4-MD2 proteins). The cells were pulsed with purified, native baboon lung SP-A and recombinant human TLR4-MD2 or MD2 proteins (RnD Systems, MN) for an hour prior to phagocytosis assay with pHrodo-conjugated, heat-killed E. coli K12 bioparticles (Invitrogen-Molecular Probes, CA). MD2 protein was also included, because SP-A is known to interact with MD2, and it was questioned if MD2 can influence the immune functions of DC-population. The assay was performed in serum-free Opti-MEM medium (Invitrogen, CA), as described by the manufacturer (Invitrogen-Molecular Probes, CA). The assay mixtures were incubated for another 3 hours at 37° C. in 5% CO2 incubator. The fluorescence readings were taken at 550 nm excitation and 600 nm emission wavelengths using SpectraMax M2 spectrofluorometer (Molecular Devices, CA).
Cytokine (TNF-α) measurement: The TNF-α levels were measured in cell-free supernatants by enzyme linked immunosorbent assay (ELISA) using a commercially available kit (eBioscience, CA), as per the manufacturer's instructions. Briefly, the microwells of a 96 well plate were coated with diluted purified anti-human TNF-α antibody. The wells were washed, and nonspecific sites were blocked. Diluted recombinant human TNF-α (7.8-500 pg/ml standard) and cell-free-supernatant (1:10) were added to the antibody-coated wells, and the plate was incubated overnight at 4° C. The next day, the plate was washed and incubated with biotin-conjugated anti-human TNF-α antibody followed by avidin-horseradish peroxidase and substrate solution. The reaction was stopped by adding 2 N H2SO4 and read at 450 nm (Molecular Devices, CA).

[2] = test system: primary adult baboon lung DCs and fetal baboon lung DC-precursor cells; experiment: Phagocytosis of pHrodo-labeled E. coli bioparticles by primary baboon lung DCs / fetal DC-precursor cells; assay type: cell-based; settings: SP-A 2 μM, TLR4-MD2 0.3 μM
Procedure: Freshly collected lobe of the lung or whole lung samples of adult and fetal baboons were transported on ice in RPMI 1640 medium containing 2 mM glutamine, 1 mM HEPES, 10 μg/ml gentamicin, 100 U/ml penicillin, 100 μg/ml streptomycin and 10% FBS. After a mild mechanical disruption, the single cell suspension was seeded in a tissue culture flask (Nalge-Nunc International Corp, NY) at a density of 30-50×10^6 leukocytes/175 cm^2 flask in RPMI 1640 medium containing 2 mM glutamine, 1 mM HEPES, 10 μg/ml gentamicin, 100 U/ml penicillin, 100 μg/ml streptomycin and 10% FBS. The light-density DC-populations were harvested using OptiPrep cell-separation solution (density 1.32 g/ml, Accurate Chemicals, NY) (Awasthi and Cooper, 2006; Awasthi et al., 2009). The immunophenotype and basic characteristics of the lung DC-population isolated from fetal and adult baboons have been described earlier (Awasthi et al., 2009). Here, first the immunophenotype of KG-1-derived DCs and fetal baboon lung DC-precursors or adult baboon lung DCs were compared by flow cytometry. Briefly, cells were suspended in Dulbecco's phosphate buffered saline (DPBS) containing 1% FBS and 0.09% sodium azide and incubated with fluorochrome-conjugated antibodies to HLA-DP, DQ, DR, CD11c, CD40, CD80, CD86 (typical DC-markers) as described earlier.
(§1) After confirming that the fluorescence is of phagocytosed bioparticles, comprehensive experiments were performed in presence and absence of effector molecules (SP-A and TLR4-MD2 proteins). […] The fluorescence readings were taken at 550 nm excitation and 600 nm emission wavelengths using SpectraMax M2 spectrofluorometer (Molecular Devices, CA).
(§2) The phagocytosis index was calculated by subtracting the average fluorescence intensity of the reaction with bioparticles alone from the control (basal without any effector molecules) and experimental wells. Finally, the percent effect was calculated using the following formula: % effect=(Net experimental phagocytosis/Net basal phagocytosis)×100%

JAWS II dendritic cells = experiment: LPS-induced TNF-α release by JAWS II dendritic cells (ELISA); assay type: cell-based, mouse; settings: for LPS-induced TNF-α secretion, pre-LPS model: peptide 1 or 10 μM 1 hour prior to LPS 75 ng/ml, total 5 hours; for LPS-induced TNF-α, mean values: post-LPS model
Procedure: JAWS II dendritic cell culture: The JAWS II dendritic cell line is an immortalized cell line derived from bone marrow of C57BL/6 mice (ATCC, Manassas, Va.). The cells were maintained in Alpha-modified minimum essential medium (Sigma, St Louis, Mo.) supplemented with 20% fetal bovine serum (FBS), 4 mM L-glutamine, 100 U/ml penicillin, 100 μg/ml streptomycin, 50 μg/ml gentamicin (Invitrogen, Grand Island, N.Y.) and 5 ng/ml of recombinant murine granulocyte macrophage-colony stimulating factor (Peprotech, Rocky Hill, N.J.). (Awasthi et al., 2005). The culture medium was replaced with fresh medium every 48 h.
The JAWS II dendritic cells (1 million) were treated with SP-A peptides (1 or 10 μM) with or without E. coli derived LPS (75 ng/ml, highly purified, low protein, Calbiochem, CA). In order to observe the anti-inflammatory properties of the SP-A peptides, the cells were treated with peptides for 1 hour prior to addition of LPS (pre-LPS treatment) or after 4 hours incubation with LPS (Post-LPS treatment). The incubation was continued for a total period of 5 hours. Control cells were treated with vehicle, LPS (75 ng/ml), and/or SP-A peptides (1 and 10 μM) for a period of 5 hours. The cell-free supernatants were collected and stored at −80° C. for further analysis.
Cytokine (TNF-α) measurement: The TNF-α levels were measured in cell-free supernatants of JAWS II dendritic cells treated with LPS with or without SP-A peptides by enzyme linked immunosorbent assay (ELISA) as described earlier (Awasthi and Cox, 2003).

KG-1-derived DCs = experiment: Phagocytosis of pHrodo-labeled E. coli bioparticles by KG-1-derived DCs; assay type: cell-based, human; settings: MD2 alone 0.02-0.2 μM
Excerpt: Phagocytosis assay: In this Example, pHrodo-conjugated, heat-killed E. coli K12 (encapsulated) bioparticles (Invitrogen-Molecular Probes, CA) were employed. The pHrodo-fluorescent label offers an advantage over other conventional methods, in that it fluoresces only in acidic conditions (i.e., after the bioparticles are taken inside the intracellular lysosomes) (Invitrogen-Molecular Probes, CA). To ensure that the fluorescence relates to phagocytosed pHrodo-conjugated E. coli bioparticles only, the phagocytosis reaction mix was imaged by confocal microscopy. […]
as §1, §2

## TLR4-MD2: soluble mixture of recombinant human TLR4 extracellular domain and MD2 proteins (R&D Systems) [reference compound]
[1]
  secretion of TNF-α by DCs in response to E. coli: increased the TNF-α secretion significantly
[2]
  phagocytic uptake of E. coli: increased

## SPA7: 20-mer synthetic peptide derived from the C-terminal Carbohydrate Recognition Domain of human SP-A (SLQGSIMTVGEKVFSSNGQS; listed as Homo sapiens)
JAWS II dendritic cells
  LPS-induced TNF-α secretion, pre-LPS model: slight increase

## SPA5: 20-mer synthetic peptide from C-terminal CRD of human SP-A; contains the first 10 amino acids of the SPA4 peptide (YVGLTEGPSPGDFRYSDGTP; listed as Homo sapiens)
JAWS II dendritic cells; peptide added after 4 hours LPS 75 ng/ml, both 1 and 10 μM
  secretion of TNF-α, post-LPS model: inhibited the secretion of TNF-α
JAWS II dendritic cells; 1 μM peptide
  LPS-induced TNF-α, mean values: 8284 pg/mL
JAWS II dendritic cells; 10 μM peptide
  LPS-induced TNF-α, mean values: 6319 pg/mL

## SPA2: 20-mer synthetic peptide derived from the C-terminal Carbohydrate Recognition Domain of human SP-A (PAGRGKEQCVEMYTDGQWND; listed as Homo sapiens)
JAWS II dendritic cells
  LPS-induced TNF-α secretion, pre-LPS model: slight increase

## SPA3: 20-mer synthetic peptide derived from the C-terminal Carbohydrate Recognition Domain of human SP-A (VNYTNWYRGEPAGRGKEQCV; listed as Homo sapiens)
JAWS II dendritic cells
  LPS-induced TNF-α secretion, pre-LPS model: slight increase

B1: MD2: recombinant human MD-2 protein, adaptor molecule for TLR4 (R&D Systems) (protein, listed as Homo sapiens)
chain: MLPFLFFSTLFSSIFTEAQKQYWVCNSSDASISYTYCDKMQYPISINVNPCIELKGSKGLLHIFYIPRRDLKQLYFNLYITVNTMNLPKRKEVICRGSDDDYSFCRALKGETVNTTISFSFKGIKFSKGKYKCVVEAISGSPEEMLFCLEFVILHQPNSN
KG-1-derived DCs
  effect on phagocytosis of E. coli bioparticles: did not affect the phagocytosis
